Results reported in US20230295574A1, “GINGIVAL TISSUES AND METHODS OF PREPARATION THEREOF” (National University of Singapore, priority 2020, published 2023).

Assays:
[1] = test system: Gingiva-FT gingival tissue equivalents; assay: Mucosal irritation and barrier integrity of mouthwashes on intact Gingiva-FT
Method: To evaluate the use of 3D cultured gingival tissue equivalents of the present invention for mucosal irritation, we investigated the impact of 2 commercially available mouthwashes. To mimic the actual use case scenario, gingival tissue equivalents (surface area 0.78 cm^2) were exposed to 130 μl alcohol-free (Listerine® Gum care Zero) or alcohol-based (Listerine® Cool Mint) mouthwashes for 30 secs, washed, and cultured. After 10 hours, the tissues were re-exposed to the respective mouthwash, washed and cultured for 24 hours. Phosphate buffered saline (PBS) and 1% sodium lauryl sulphate was used as negative and positive controls respectively. Based on the OECD TG439 guidelines, 50% cellular viability was set as threshold for classification of mucosal irritants.

[2] = test system: lamina propria equivalents; assay: Mucosal irritation of mouthwashes on lamina propria equivalents (oral ulcer model)
Method: Oral ulcers are one of the most common disturbances in the oral cavity. Since, the oral ulcers is devoid of the overlying epithelium, the barrier function provided by the epithelium is lost. […] To evaluate the use of 3D cultured lamina propria equivalents as a model of oral ulcers, we investigated the impact of 2 commercially available mouthwashes for mucosal irritation. To mimic the actual use case scenario, gingival tissue equivalents (surface area 0.78 cm^2) were exposed to 130 μl alcohol-free (Listerine® Gum care Zero) or alcohol-based (Listerine® Cool Mint) mouthwashes for 30 secs, washed, and cultured. After 10 hours, the tissues were re-exposed to the respective mouthwash, washed and cultured for 24 hours. Phosphate buffered saline (PBS) and 1% sodium lauryl sulphate was used as negative and positive controls respectively. Based on the OECD TG439 guidelines, 50% cellular viability was set as threshold for classification of mucosal irritation.

[3] = test system: Gingiva-FT gingival tissue equivalents; assay: Mucosal corrosion on Gingiva-FT (OECD TG431); assay type: cell-based, human; conditions: for tissue disruption: Gingiva-FT
Method: Some excipients used to incorporate the actives and formulate oral/dental care products and pharmaceuticals, have the potential to cause mucosal corrosion similar to caustic substances like acids and bases. […] Based on the OECD TG431 guidelines, 50% and 15% cellular viability was set as thresholds for 3 min and 60 min exposures respectively.

[4] = exposure 30 secs twice, 24 hours culture
[5] = lamina propria equivalents, exposure 30 secs twice, 24 hours culture

Row | Compound | TUNEL staining (apoptosis/cell death) [1, 4] | cytotoxicity (LDH assay) [1, 4] | tissue / epithelial disruption [1, 4] | cellular viability ([1]; exposure 30 secs, re-exposed after 10 hours, cultured 24 hours, 50% threshold (OECD TG439)) | cellular viability ([2]; lamina propria equivalents (ulcer model), exposure 30 secs, re-exposed after 10 hours, cultured 24 hours, 50% threshold (OECD TG439)) | TUNEL staining (apoptosis/cell death) [2, 5] | cytotoxicity (LDH assay) [2, 5] | tissue disruption [2, 5] | tissue disruption ([3]; 3 min exposure) | tissue disruption ([3]; 60 min exposure) | mucosal corrosion classification ([3]; OECD TG431)
1 | CCCCCCCCCCCCOS(=O)(=O)[O-].[Na+] [1% sodium lauryl sulphate, sodium lauryl sulphate] | TUNEL positivity | markedly increased cytotoxicity | significant tissue disruption | < 50% | < 50% | TUNEL positivity | markedly increased cytotoxicity | significant tissue disruption | – | – | –
2 | O=P(O)(O)O [37% phosphoric acid, phosphoric acid] | – | – | – | – | – | – | – | – | tissue disruption | almost complete lysis of the tissues | corrosive (category 1A)
